Data reported in US10688142B2, “Methods of treatment using a lipid extract of Passiflora seeds concentrated in its unsaponifiable fraction” (Laboratoires Expanscience, priority 2013, dated 2020).
Marks after values point to notes of the source that are not given here.

How the values were obtained:
Assay type in all cases: cell-based
human mature adipocytes = experiment: Lipolysis: release of glycerol by encapsulated mature adipocytes; details: 10 μM forskoline, 4 hours
Method: Human white adipose tissue carries out a fundamental metabolic function by providing the other tissues in the body with energy molecules in the form of fatty acids released by the adipocyte lipolysis process: adipocytes mobilise energy reserves by hydrolysing stored triglycerides to fatty acids and glycerol; the fatty acids thus released into the bloodstream can be used by other tissues for energy purposes. The effect of the Passiflora concentrate on adipocyte lipolysis was evaluated by assay of glycerol released during hydrolysis of the triglycerides stored in human mature adipocytes cultured in 3 dimensions.
Mature adipocytes, derived from biopsies of subcutaneous adipose tissue taken from five donors (normal-weight or overweight) were isolated and encapsulated in peptide gel allowing their survival and biological functionality in culture. The encapsulated mature adipocytes were incubated in the presence of 0.001% or 0.005% Passiflora concentrate, or 10 μM forskoline (standard) for 4 hours.
After incubation, the released glycerol was assayed in the culture medium using an assay kit (Randox), the values obtained were normalised with the amount of DNA evaluated with a kit (Invitrogen).

collagen I = experiment: Expression of dermal matrix components in normal human fibroblasts, real-time quantitative RT-PCR; details: TGFβ1 at 5 ng/ml, 24 hours
Method: (§1) Normal human dermal fibroblasts were incubated for 24 hours in 1 FCS culture medium in the presence of 0.005% and 0.05% Passiflora concentrate or TGFβ1 at 5 ng/ml (standard). After incubation, the total RNAs were extracted, assayed and retro-transcribed. The gene expression of collagen I and elastin were analysed by real-time quantitative RT-PCR.

elastin = experiment: as above; details: TGFβ1 at 5 ng/ml, 24 hours
Method: as §1

Compound | Stimulation (%) of glycerol release (human mature adipocytes) | Release of glycerol (human mature adipocytes; mean of 5 donors, control 1.00) [Arbitrary unit] | Collagen I gene expression, percentage increase relative to non-treated control (collagen I) | Collagen I (Relative Quantity) (collagen I; control = 1.00) | Elastin gene expression, percentage increase relative to non-treated control (elastin) | Elastin (Relative Quantity) (elastin; control = 1.00)
C=C[C@@]1(C)CC(=O)[C@]2(O)[C@@]3(C)[C@@H](O)CCC(C)(C)[C@@H]3[C@H](O)[C@H](OC(C)=O)[C@@]2(C)O1 [Forskoline, forskoline] | +660% ** | 6.60 |  |  |  | 
TGFβ1: TGFβ1 at 5 ng/ml (standard) in the dermal matrix gene expression test |  |  | +30% ns^ | 1.30 | +40% * | 1.40
